Legend:
[1] = biological target: T1, TRPV1 receptor (Rattus norvegicus, UniProt O35433); assay: Test of inhibition of the current induced with capsaicin on rat DRGs (whole-cell patch-clamp); format: cell-based; details: inhibition of control capsaicin response, newborn rat DRG neurones
T1 construct: DRG neurones naturally express the TRPV1 receptor; endogenous in cells; host or cells: primary culture of newborn rat dorsal root ganglion neurones
Experimental: Test of inhibition of the current induced with capsaicin on rat DRGs • Primary culture of rat dorsal root ganglion (DRG) cells:
DRG neurones naturally express the TRPV1 receptor.
The primary cultures of newborn rat DRGs are prepared using 1-day-old rats. Briefly, after dissection, the ganglions are trypsinized and the cells dissociated by mechanical trituration. The cells are resuspended in an Eagle basal culture medium containing 10% foetal calf serum, 25 mM KCl, 2 mM glutamine, 100 μg/ml gentamicin and 50 ng/ml of NGF, and then deposited on glass slides coated with laminin (0.25×10^6 cells per slide), which are then placed in Corning 12-well dishes. The cells are incubated at 37° C. in a humidified atmosphere containing 5% CO2 and 95% air. […]
The measuring chambers (volume 800 μl) containing the cell preparation are placed on the platform of an inverted microscope (Olympus IMT2) equipped with Hoffman optics (Modulation Contrast, New York) and observed at a magnification of 400×. […] The overall currents (membrane potential set at −60 mV) are recorded with an Axopatch 1D amplifier (Axon Instruments, Foster City, Calif.), connected to a PC running the Pclamp8 software (Axon Instrument). The current plots are recorded on paper and simultaneously digitized (sampling frequency 15 to 25 Hz) and acquired on the hard drive of the PC. […]

[2] = biological target: T2, local TRPV1 receptors (Mus musculus, UniProt Q704Y3); assay: Pain induced by intraplantar administration of capsaicin to mice; format: in vivo; details: 10 mg/kg orally 120 minutes before intraplantar capsaicin, n=10
T2 construct: from tissue; host or cells: living mouse, hind leg (intraplantar capsaicin injection)
Experimental: Pain induced by intraplantar administration of capsaicin to mice.
The intraplantar injection of capsaicin to mice rapidly produces short-lived nociceptive behaviour, which is reflected by licking, biting and flexing of the administered leg. These nociceptive responses are probably associated with the activation of the local TRPV1 receptors by the capsaicin.
(E)-Capsaicin is initially diluted to 3 mg/ml in DMSO, and then diluted again for its final use to 1.5 μg/20 μl in physiological saline. The administration of solvent has no effect on the behaviour of the mouse. The capsaicin is injected into the hind legs of the animal, on the upper face.
The test compounds are administered orally 120 minutes before the injection of capsaicin. Two hours after administration of the compounds, the mice are placed in a glass beaker. The nociceptive behaviour of the animals is then assessed immediately by the experimenter, and the duration of the capsaicin-induced behavioural manifestations is timed over a period of 2 minutes (licking and biting, total or partial flexure of the injected leg).
For each compound, an inhibition corresponding to the mean of the capsaicin-induced nociceptive responses, in response to a dose of test product (expressed in mg/kg) administered orally to a sample of a given number (n) of mice, is determined. […]

T1 sequence (O35433 whole entry): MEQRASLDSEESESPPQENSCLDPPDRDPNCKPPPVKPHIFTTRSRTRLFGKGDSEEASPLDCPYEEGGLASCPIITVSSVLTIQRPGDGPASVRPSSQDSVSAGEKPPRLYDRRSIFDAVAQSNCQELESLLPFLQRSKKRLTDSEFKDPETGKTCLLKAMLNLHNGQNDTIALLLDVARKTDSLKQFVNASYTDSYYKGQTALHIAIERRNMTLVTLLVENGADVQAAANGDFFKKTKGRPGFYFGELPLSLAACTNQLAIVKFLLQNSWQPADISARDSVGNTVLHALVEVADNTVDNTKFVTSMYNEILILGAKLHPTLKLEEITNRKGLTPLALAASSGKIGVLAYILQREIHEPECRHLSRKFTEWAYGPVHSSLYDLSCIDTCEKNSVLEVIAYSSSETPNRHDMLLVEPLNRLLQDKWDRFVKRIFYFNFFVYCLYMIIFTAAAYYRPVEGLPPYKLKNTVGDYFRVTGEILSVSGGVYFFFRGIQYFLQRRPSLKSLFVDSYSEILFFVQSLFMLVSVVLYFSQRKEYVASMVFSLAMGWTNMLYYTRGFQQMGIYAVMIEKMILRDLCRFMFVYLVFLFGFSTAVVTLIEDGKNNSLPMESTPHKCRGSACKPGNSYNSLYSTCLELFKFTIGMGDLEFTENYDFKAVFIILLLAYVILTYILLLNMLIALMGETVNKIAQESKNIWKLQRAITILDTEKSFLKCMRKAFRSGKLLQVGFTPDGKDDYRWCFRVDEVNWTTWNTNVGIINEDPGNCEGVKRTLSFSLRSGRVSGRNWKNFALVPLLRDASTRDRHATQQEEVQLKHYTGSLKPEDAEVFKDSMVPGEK
T2 sequence (Q704Y3 whole entry): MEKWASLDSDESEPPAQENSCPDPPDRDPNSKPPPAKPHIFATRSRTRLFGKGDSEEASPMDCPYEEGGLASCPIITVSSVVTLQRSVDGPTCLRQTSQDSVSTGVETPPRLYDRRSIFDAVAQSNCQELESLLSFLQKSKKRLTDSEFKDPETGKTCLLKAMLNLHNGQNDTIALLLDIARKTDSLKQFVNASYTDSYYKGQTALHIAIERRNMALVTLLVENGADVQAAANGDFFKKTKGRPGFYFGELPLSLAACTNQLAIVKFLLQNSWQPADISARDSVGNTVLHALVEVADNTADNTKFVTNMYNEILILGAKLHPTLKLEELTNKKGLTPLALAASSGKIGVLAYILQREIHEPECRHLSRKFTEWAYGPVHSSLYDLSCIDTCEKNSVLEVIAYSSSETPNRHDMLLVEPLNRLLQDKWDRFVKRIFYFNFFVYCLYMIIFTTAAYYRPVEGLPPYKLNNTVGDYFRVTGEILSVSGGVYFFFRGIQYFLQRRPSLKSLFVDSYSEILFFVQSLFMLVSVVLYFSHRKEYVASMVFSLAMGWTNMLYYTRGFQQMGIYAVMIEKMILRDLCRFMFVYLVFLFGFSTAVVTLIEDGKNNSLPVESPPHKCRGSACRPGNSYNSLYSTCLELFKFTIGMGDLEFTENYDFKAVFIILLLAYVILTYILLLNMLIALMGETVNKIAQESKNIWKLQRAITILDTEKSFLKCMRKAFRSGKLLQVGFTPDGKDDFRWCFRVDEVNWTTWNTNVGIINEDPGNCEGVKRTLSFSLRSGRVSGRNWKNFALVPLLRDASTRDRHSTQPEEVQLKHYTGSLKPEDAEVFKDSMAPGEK

Structure (SMILES) | inhibition at 0.001 µM ([1]; compound at 1 nM) [%] | % inhibition of the capsaicin-induced nociceptive responses [2] | inhibition at 0.1 µM ([1]; compound at 100 nM) [%] | melting point [°C]
O=C(Nc1cnc2[nH]ccc2c1)c1cc2cc(F)ccc2n1Cc1cccc(F)c1 [Compound 2, N-[1H-Pyrrolo[2,3-b]pyrid-5-yl]-5-fluoro-1-(3-fluorobenzyl)-1H-indole-2-carboxamide] | 82 | 61% (±6%) |  | 
O=C(Nc1cc2cc[nH]c2cn1)c1cc2cc(F)ccc2n1Cc1cccc(F)c1 [Compound 8, N-(1H-Pyrrolo[2,3-c]pyrid-5-yl)-5-fluoro-1-[(3-fluorophenyl]methyl]-1H-indole-2-carboxamide] |  |  | 67.5 | 203 to 204
